Measurements published in patent US20250019379A1, “NEW CRYSTAL FORM OF COMPOUND, AND PREPARATION METHOD THEREFOR AND USE THEREOF” (E-nitiate Biopharmaceuticals (Hangzhou) Co., Ltd, priority 2021, published 2025).

How the values were obtained:
Type in all cases: physicochemical
[1] = Thermodynamic analysis experiment (heating, XRPD)
Description: Crystalline form H and crystalline form S were heated to appropriate temperatures under N2 protection, and after cooling to room temperature, the XRPD of the solids was measured.

[2] = Influencing factors test (light, high temperature, high humidity); settings: 5000Lx light, 60° C., 90% RH±5% RH; 0, 5, 10, 30 days
Description: The stability of the crystalline form of the present invention under accelerated test conditions was determined. […] Stability testing was conducted under the following conditions, and samples were taken on the 0th day, the 5th day, the 10th day and the 30th day. The content, total impurities, and XRPD patterns of the samples were recorded and compared with the initial data.

[3] = Crystal form stability test
Description: The crystalline form M was stored at a temperature of 25° C. and a humidity of 55% RH for 35 days, and the XRPD of the solid was tested.

[4] = Solid state stability (HPLC purity, XRPD); settings: for Purity (%): open
Description: Purity testing (via HPLC) and crystal form detection (via XRPD) were performed on starting samples, samples stored for one week, and samples stored for two weeks.

[5] = Dynamic solubility in biological solvents at 37° C.; settings: 37° C.
Description: (1) Preparation method of FaSSIF: a. Weigh 42 mg NaOH, 395 mg NaH2PO4·H2O and 619 mg NaCl in a 100 mL beaker, add 90 mL deionized water to dissolve: b. Adjust the pH to […]; Dilute to 100 mL with deionized water to obtain FaSSIF blank solvent: c. Weigh 224 mg of Simulated Intestinal Fluid (hereinafter referred to as SIF powder), add 50 mL of the above FaSSIF blank solvent, and stir until completely dissolved; use Dilute the FaSSIF blank solvent to 100 mL to prepare the solvent FaSSIF; d. Let it stand at room temperature for 2 hours before use.
(2) Preparation method of FeSSIF: a. Weigh 404 mg NaOH, 865 mg glacial acetic acid and 1189 mg NaCl in a 100 mL beaker, add 90 mL deionized water to dissolve: b. Adjust the pH to 5.0 with 1N NaOH or 1N HCl; Dilute to 100 mL with deionized water to obtain FeSSIF blank solvent; c. Weigh 1120 mg SIF powder and add 50 mL of the above FeSSIF blank solvent, stir until dissolved: dilute to 100 mL with FeSSIF blank solvent to obtain FeSSIF solvent d. Let it stand at room temperature before use to ensure a clear solution.
(3) Preparation method of SGF: a. Weigh 200 mg NaCl in a 100 mL beaker, add 90 mL deionized water to dissolve; b. Adjust the pH to 1.6 with 1N HCl; dilute to 100 mL with deionized water to obtain SGF Blank solvent; c. Weigh 6 mg SIF powder and add 50 mL of the above SGF blank solvent, stir until dissolved: dilute to 100 mL with SGF blank solvent to prepare the solvent SGF: d. Let it stand at room temperature before use to ensure a clear solution.
(100 rpm). Take 1.3 mL of the suspension (or clarified solution) respectively at 1, 4, and 24 hours, and centrifuge the suspension for 5 minutes. The solid obtained is used for crystal form detection (XRPD), and the supernatant/clarified solution is filtered for solubility testing and pH test.
Solubility data of the samples were collected using a high-performance liquid chromatograph equipped with an image diode array detector.

## C[C@@H](O)c1nc2cnc3[nH]ccc3c2n1N1CCC(CC#N)CC1 [Crystalline form H, (R)-2-(1-(2-(1-hydroxyethyl)imidazo[4,5-d]pyrrolo[2,3-b]pyridine-1(6H)-yl)piperidin-4-yl)acetonitrile]
[1]; heated to 162° C. under N2, cooled to room temperature
  crystal form after heating (XRPD): partially converted into crystalline form A
[1]; heated to 210° C. under N2, cooled to room temperature
  crystal form after heating (XRPD): completely converted into crystalline form A
[2]
  stability under accelerated test conditions (content, total impurities, XRPD): better stability

## C[C@@H](O)c1nc2cnc3[nH]ccc3c2n1N1CCC(CC#N)CC1 [Crystalline form M, (R)-2-(1-(2-(1-hydroxyethyl)imidazo[4,5-d]pyrrolo[2,3-b]pyridine-1(6H)-yl)piperidin-4-yl)acetonitrile]
[3]
  stability under ambient temperature and humidity: unstable
[3]; 25° C., 55% RH, 35 days
  crystal form after storage (XRPD): transformed into the crystalline form A

## C[C@@H](O)c1nc2cnc3[nH]ccc3c2n1N1CCC(CC#N)CC1 [Crystalline form Q, (R)-2-(1-(2-(1-hydroxyethyl)imidazo[4,5-d]pyrrolo[2,3-b]pyridine-1(6H)-yl)piperidin-4-yl)acetonitrile]
[4]
  solid-state stability (conclusion): good solid-state stability
[4]; 1 week, 25° C./60% RH
  Purity (%): 99.80%
[4]; 1 week, 40° C./75% RH
  Purity (%): 99.93%
[4]; 1 week, 60° C.
  Purity (%): 99.91%
[4]; 1 week, 25° C./60% RH, 40° C./75% RH, 60° C.
  Crystal form changes: no change
[4]; 2 week, 25° C./60% RH
  Purity (%): 99.87%
[4]; 2 week, 40° C./75% RH
  Purity (%): 99.87%
[4]; 2 week, 60° C.
  Purity (%): 99.92%
[4]; 2 week, 25° C./60% RH, 40° C./75% RH, 60° C.
  Crystal form changes: no change
[4]; after one week and two weeks of storage under the selected conditions
  change in the crystalline form (XRPD): no change
[4]; after one week and two weeks under the selected conditions
  change in purity: no significant change
[4]; starting sample
  Starting sample Purity (%): 99.87%
[5]; FaSSIF, 1 h
  Changes in Crystal form: no change
  pH: 6.45
[5]; FaSSIF, 4 h
  pH: 6.40
[5]; FaSSIF, 24 h
  Changes in Crystal form: no change
  pH: 6.49
[5]; FeSSIF, 1 h
  pH: 4.96
[5]; FeSSIF, 4 h
  pH: 4.98
[5]; FeSSIF, 24 h
  Changes in Crystal form: no change
  pH: 5.00
[5]; SGF, 1 h
  Changes in Crystal form: no change
  pH: 2.60
[5]; SGF, 4 h
  pH: 2.98
[5]; SGF, 24 h
  Changes in Crystal form: no change
  pH: 2.71
[5]; SGF/FeSSIF/FeSSIF, 24 hours
  crystal form stability when suspended and stirred: stable
[2]
  stability under accelerated test conditions (content, total impurities, XRPD): better stability

## C[C@@H](O)c1nc2cnc3[nH]ccc3c2n1N1CCC(CC#N)CC1 [Crystalline form S, (R)-2-(1-(2-(1-hydroxyethyl)imidazo[4,5-d]pyrrolo[2,3-b]pyridine-1(6H)-yl)piperidin-4-yl)acetonitrile]
[1]; heated to 215° C. under N2, cooled to room temperature
  crystal form after heating (XRPD): converted into crystalline form A
